Experimental data from ChEMBL document CHEMBL1138857, “Quinol-4-ones as steroid A-ring mimetics in nonsteroidal dissociated glucocorticoid agonists” (J Med Chem, 2006).

Tests used:
Progesterone receptor = molecular target: T1, Progesterone receptor (Homo sapiens, UniProt P06401); assay: Inhibition of tetramethylrhodamine labeled RU486 binding to PR by FP assay
T1 sequence (P06401 whole entry): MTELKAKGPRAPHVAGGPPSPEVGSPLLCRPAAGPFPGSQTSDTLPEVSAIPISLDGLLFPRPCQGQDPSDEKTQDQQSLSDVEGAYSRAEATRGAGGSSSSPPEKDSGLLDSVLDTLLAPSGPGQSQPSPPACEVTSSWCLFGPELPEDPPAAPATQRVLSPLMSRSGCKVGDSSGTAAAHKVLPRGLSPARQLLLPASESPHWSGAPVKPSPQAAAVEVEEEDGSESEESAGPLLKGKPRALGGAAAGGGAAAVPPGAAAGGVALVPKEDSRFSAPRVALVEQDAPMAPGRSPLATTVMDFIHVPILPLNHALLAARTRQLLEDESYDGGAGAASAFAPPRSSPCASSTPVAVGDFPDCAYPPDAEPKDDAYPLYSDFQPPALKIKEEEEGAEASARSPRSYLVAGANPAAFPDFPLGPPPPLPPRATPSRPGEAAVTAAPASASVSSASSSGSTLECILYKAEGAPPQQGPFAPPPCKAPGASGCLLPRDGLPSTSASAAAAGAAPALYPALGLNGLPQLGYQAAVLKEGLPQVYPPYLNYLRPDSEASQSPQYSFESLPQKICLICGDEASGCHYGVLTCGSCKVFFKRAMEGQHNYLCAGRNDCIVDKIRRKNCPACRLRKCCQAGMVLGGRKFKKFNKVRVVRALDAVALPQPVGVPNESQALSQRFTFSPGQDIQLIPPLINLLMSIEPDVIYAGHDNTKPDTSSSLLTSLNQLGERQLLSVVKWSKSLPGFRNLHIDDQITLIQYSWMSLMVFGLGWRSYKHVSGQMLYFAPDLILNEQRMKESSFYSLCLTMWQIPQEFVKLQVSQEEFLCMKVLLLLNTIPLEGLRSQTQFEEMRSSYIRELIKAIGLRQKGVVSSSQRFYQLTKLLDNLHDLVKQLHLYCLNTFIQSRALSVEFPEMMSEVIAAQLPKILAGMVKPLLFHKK

[1] = molecular target: T2, Mineralocorticoid receptor (Homo sapiens, UniProt P08235); assay: Inhibition of tetramethylrhodamine labeled dexamethasone binding to MR by FP assay
T2 sequence (P08235 whole entry): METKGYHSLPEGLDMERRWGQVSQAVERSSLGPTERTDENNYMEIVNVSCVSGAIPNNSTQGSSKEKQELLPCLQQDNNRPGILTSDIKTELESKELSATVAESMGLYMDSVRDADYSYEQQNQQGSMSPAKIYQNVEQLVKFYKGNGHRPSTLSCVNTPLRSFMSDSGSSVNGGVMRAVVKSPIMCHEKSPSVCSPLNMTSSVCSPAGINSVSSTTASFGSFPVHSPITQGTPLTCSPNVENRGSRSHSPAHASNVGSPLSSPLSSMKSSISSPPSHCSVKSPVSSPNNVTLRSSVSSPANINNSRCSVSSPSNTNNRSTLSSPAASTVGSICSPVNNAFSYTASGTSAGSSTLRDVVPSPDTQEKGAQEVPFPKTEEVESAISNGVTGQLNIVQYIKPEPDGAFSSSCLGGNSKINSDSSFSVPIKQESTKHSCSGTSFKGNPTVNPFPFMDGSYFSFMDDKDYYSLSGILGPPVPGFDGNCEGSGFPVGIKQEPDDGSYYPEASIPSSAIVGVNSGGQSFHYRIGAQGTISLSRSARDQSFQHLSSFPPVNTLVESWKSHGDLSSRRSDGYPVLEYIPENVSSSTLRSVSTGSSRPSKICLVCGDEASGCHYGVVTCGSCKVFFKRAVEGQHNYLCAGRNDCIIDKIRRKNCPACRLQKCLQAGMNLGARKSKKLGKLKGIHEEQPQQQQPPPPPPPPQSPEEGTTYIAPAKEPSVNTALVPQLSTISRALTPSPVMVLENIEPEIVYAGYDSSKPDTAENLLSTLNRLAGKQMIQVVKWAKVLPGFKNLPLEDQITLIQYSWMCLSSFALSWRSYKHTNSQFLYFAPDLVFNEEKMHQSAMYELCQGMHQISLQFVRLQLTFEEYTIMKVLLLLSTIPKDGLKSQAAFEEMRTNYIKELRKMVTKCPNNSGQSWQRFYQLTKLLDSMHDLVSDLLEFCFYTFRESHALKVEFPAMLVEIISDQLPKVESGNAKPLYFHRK

HFF [2] = assay: Inhibition of IL1-stimulated IL6 production in HFF cells; type: functional, cell-based; conditions: Homo sapiens
HFF [3] = assay: Inhibition of IL1-stimulated IL6 production in HFF cells relative to Dexamethasone; type: functional, Homo sapiens
Homo sapiens = organism: Homo sapiens; assay: Ratio of IC50 for GR to PR
Glucocorticoid receptor = molecular target: T3, Glucocorticoid receptor (Homo sapiens, UniProt P04150)
T3 sequence (P04150 whole entry): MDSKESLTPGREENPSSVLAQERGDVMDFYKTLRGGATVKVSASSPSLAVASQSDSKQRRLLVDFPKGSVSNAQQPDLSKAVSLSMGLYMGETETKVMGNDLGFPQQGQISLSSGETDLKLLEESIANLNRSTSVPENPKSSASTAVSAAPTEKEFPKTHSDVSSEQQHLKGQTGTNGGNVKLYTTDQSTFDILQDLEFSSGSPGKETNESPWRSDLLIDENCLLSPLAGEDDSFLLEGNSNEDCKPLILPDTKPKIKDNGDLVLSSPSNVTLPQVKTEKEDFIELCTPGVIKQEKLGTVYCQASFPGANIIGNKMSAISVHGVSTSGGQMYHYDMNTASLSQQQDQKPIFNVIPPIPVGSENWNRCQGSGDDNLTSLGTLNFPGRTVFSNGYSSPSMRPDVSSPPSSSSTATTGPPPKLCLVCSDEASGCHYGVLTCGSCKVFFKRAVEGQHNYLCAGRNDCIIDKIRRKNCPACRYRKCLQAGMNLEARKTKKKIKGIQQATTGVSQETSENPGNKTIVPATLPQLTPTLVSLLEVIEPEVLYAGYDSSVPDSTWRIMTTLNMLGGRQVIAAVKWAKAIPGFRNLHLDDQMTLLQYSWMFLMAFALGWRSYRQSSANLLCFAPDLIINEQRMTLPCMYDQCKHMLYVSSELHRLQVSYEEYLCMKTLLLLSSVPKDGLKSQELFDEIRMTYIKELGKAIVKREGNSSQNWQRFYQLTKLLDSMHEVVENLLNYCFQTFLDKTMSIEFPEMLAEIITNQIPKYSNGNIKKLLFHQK

HFF [4] = assay: Induction of aromatase activity in HFF cells assessed as production of beta estradiol by aromatase assay; type: functional, cell-based; conditions: Homo sapiens
HFF [5] = assay: Induction of aromatase activity in HFF cells assessed as production of beta estradiol by aromatase assay relative to Dexamethasone; type: functional, Homo sapiens
HeLa [6] = assay: Activation of MMTV in HeLa cells measured by luciferase activity; type: functional, cell-based; conditions: Homo sapiens
HeLa [7] = assay: Activation of MMTV in HeLa cells measured by luciferase activity relative to Dexamethasone; type: functional, Homo sapiens
Mus musculus [8] = assay: Inhibition of LPS-stimulated TNFalpha production in BALB/c mouse at 10 mg/kg, po; type: functional
Mus musculus [9] = assay: Inhibition of LPS-stimulated TNFalpha production in BALB/c mouse at 3 mg/kg, po; conditions: read-out: Inhibition

Row | SMILES | EC50 (HeLa [6]) | IC50 (Progesterone receptor) | IC50 [1] | IC50 (HFF [2]) | Efficacy (HFF [3]) | Ratio IC50 (Homo sapiens) | IC50 (Glucocorticoid receptor) | EC50 (HFF [4]) | Efficacy (HFF [5]) | Efficacy (HeLa [7]) | inhibition in vivo at 10 mg/kg (Mus musculus [8]) | inhibition in vivo at 3 mg/kg (Mus musculus [9])
1 | COc1ccc(F)cc1C(C)(C)CC(O)(CN1CCOc2ccccc21)C(F)(F)F (configuration not stated) |  | 640 nM | 310 nM | 600 nM | 25% | < 50 | 15 nM |  |  |  |  | 
2 | COc1ccc(F)cc1C(C)(C)CC(O)(Cn1ccc(=O)c2ccccc21)C(F)(F)F (configuration not stated) | > 2000 nM | 475 nM | 120 nM | 27 nM | 82% | < 50 | 10 nM | 220 nM | 67% | 10% |  | 
3 | COc1ccc(F)cc1C(C)(C)CC(O)(CN1C[C@@H](C)O[C@@H](C)C1)C(F)(F)F (some centres not stated) |  | > 2000 nM | 450 nM | 270 nM | 72% | > 75 | 38 nM |  |  |  |  | 
4 | COc1ccc(F)cc1C(C)(C)CC(O)(CN1CCC(=O)c2ccccc21)C(F)(F)F (configuration not stated) |  | 90 nM | 130 nM | 110 nM | 72% | < 50 | 4 nM |  |  |  |  | 
5 | COc1ccc(F)cc1C(C)(C)CC(O)(CN1C[C@@H](C)C(=O)[C@@H](C)C1)C(F)(F)F (some centres not stated) |  | > 2000 nM | 430 nM | 75 nM | 89% | > 75 | 10 nM | 240 nM | 93% |  |  | 

More lines, main results first:

Row | EC50 (HeLa [6]) | SMILES | IC50 (Progesterone receptor) | IC50 [1] | IC50 (HFF [2]) | Efficacy (HFF [3]) | Ratio IC50 (Homo sapiens) | IC50 (Glucocorticoid receptor) | EC50 (HFF [4]) | Efficacy (HFF [5]) | Efficacy (HeLa [7]) | inhibition in vivo at 10 mg/kg (Mus musculus [8]) | inhibition in vivo at 3 mg/kg (Mus musculus [9])
6 | > 2000 nM | Cc1ccc(F)cc1C(C)(C)CC(O)(Cn1ccc(=O)c2ccccc21)C(F)(F)F (configuration not stated) | 240 nM | 120 nM | 34 nM | 66% |  | 10 nM |  | 22% | 2% | 50% | 
7 | 37 nM | CC(C)(CC(O)(Cn1ccc(=O)c2ccccc21)C(F)(F)F)c1cc(F)ccc1O (configuration not stated) | 960 nM | 580 nM | 6 nM | 92% |  | 5 nM | 14 nM | 74% | 20% | 55% | 
8 | 16 nM | C[C@]12C=CC(=O)C=C1CC[C@@H]1[C@@H]2[C@@H](O)C[C@@]2(C)[C@H]1CC[C@]2(O)C(=O)CO [PREDNISOLONE] |  |  | 6.6 nM | 96% |  |  | 19 nM | 92% | 91% |  | 84%
9 | > 2000 nM | Cc1ccccc1C(C)(C)CC(O)(Cn1ccc(=O)c2ccccc21)C(F)(F)F (configuration not stated) | 240 nM | 150 nM | 61 nM | 63% |  | 22 nM | > 2000 nM | 29% | 1% | 36% | 
